Series [1] deals with T1, 3-oxo-5-alpha-steroid 4-dehydrogenase 1 (Homo sapiens) (UniProt P18405).
T1 sequence (whole entry): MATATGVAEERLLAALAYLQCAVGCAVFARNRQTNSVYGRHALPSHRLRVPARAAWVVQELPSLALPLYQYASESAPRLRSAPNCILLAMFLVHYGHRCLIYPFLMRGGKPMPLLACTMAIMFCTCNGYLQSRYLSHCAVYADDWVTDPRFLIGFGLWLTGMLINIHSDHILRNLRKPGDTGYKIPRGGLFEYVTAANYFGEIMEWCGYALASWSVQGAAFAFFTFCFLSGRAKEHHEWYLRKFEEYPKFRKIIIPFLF
The series is described as follows: Inhibition of human 5-alpha reductase 1 expressed in LNCap cells at 10 uM. It is filed as cell-based.

The target of series [2] is T1, 3-oxo-5-alpha-steroid 4-dehydrogenase 1 (Homo sapiens). The series is described as follows: Inhibition of human 5-alpha reductase 1 expressed in LNCap cells at 1 uM. In kind it is cell-based.
Series [3] addresses T2, 3-oxo-5-alpha-steroid 4-dehydrogenase 1 (Homo sapiens, UniProt P18405).
T2 sequence (P18405 whole entry): T1 sequence (whole entry)
Briefly: Inhibition of human 5-alpha reductase 1 expressed in LNCap cells. It is filed as cell-based.

Substrate in series [4]: CCC(CC)(c1ccc(OC(=O)N(Cc2ccccc2)Cc2ccccc2)cc1)c1ccc(N(C)C(C)=O)cc1
Briefly: Activity of 5-alpha reductase 1 at 1 uM.

A word on the inhibition: it is the share of the control response that was lost under treatment. Molecule `CCC(CC)(c1ccc(OC(=O)N2CCN(C)CC2)cc1)c1ccc(N(C)C(C)=O)cc1` gave an inhibition in series [1] of 17%.

In series [2], `CCC(CC)(c1ccc(OC(=O)N2CCCCCCC2)cc1)c1ccc(N(C)C(C)=O)cc1` returned an inhibition of 20%.

Take `CCN(CC)C(=O)Oc1ccc(C(CC)(CC)c2ccc(N(C)C(C)=O)c(C)c2)cc1`: the inhibition in series [1] is 25%.

For `CCC(CC)(c1ccc(OC(=O)N2CCOCC2)cc1)c1ccc(N(C)C(C)=O)cc1`, in series [1], the inhibition worked out at 15%.

The molecule `CCN(CC)C(=O)Oc1ccc(C2(c3ccc(N(C)C(C)=O)cc3)CCCCC2)cc1` came in with an inhibition in series [1] of 46%.

In series [1], `CCN(CC)C(=O)Oc1ccc(C2(c3ccc(N(C)C(C)=O)cc3)CCCCCC2)cc1` registered an inhibition of 25%.

Usually IC50 stands for the concentration needed to halve the response being measured. Read a high IC50 as weaker potency. As for `CCC(CC)(c1ccc(OC(=O)N(Cc2ccccc2)Cc2ccccc2)cc1)c1ccc(N(C)C(C)=O)cc1`, it took 0.84 µM to reach half-maximal inhibition in series [3] (IC50). In addition, the inhibition in series [2] is 51%.

Molecule `CCN(CC)C(=O)Oc1ccc(C2(c3ccc(N(C)C(C)=O)cc3)CCC2)cc1` gave an inhibition in series [1] of 16%.

In the case of `CCCC(CCC)(c1ccc(OC(=O)N(CC)CC)cc1)c1ccc(N(C)C(C)=O)cc1`, in series [1], the inhibition came to 27%.

For the molecule `CCC(CC)(c1ccc(OC(=O)N2CCCC2)cc1)c1ccc(N(C)C(C)=O)cc1`, the inhibition in series [1] was found to be 57%.

`CCCN(CCC)C(=O)Oc1ccc(C(CC)(CC)c2ccc(N(C)C(C)=O)cc2)cc1` had an IC50 in series [3] of 2.9 µM. In addition, the inhibition in series [1] was 77%; in series [2], 26%.

As for `CCCCN(CCCC)C(=O)Oc1ccc(C(CC)(CC)c2ccc(N(C)C(C)=O)cc2)cc1`, the inhibition in series [2] turned out to be 32%.

With `CCN(CC)C(=O)Oc1ccc(C(CC)(CC)c2ccc(N(C)C(C)=O)cc2)cc1C`, the inhibition in series [1] amounted to 56%.

Molecule `CCN(CC)C(=O)Oc1ccc(C(C)(C)c2ccc(N(C)C(C)=O)cc2)cc1` came in with an inhibition in series [1] of 16%.

In the case of `CCC(CC)(c1ccc(OC(=O)N2CCCCCC2)cc1)c1ccc(N(C)C(C)=O)cc1`, in series [3], the IC50 is 4.7 µM. Moreover, the inhibition in series [1] stood at 70%.

In series [1], `CCC(CC)(c1ccc(OC(=O)N(C)C)cc1)c1ccc(N(C)C(C)=O)cc1` yielded an inhibition of 29%.

Molecule `CCC(CC)(c1ccc(OC(=O)N(C(C)C)C(C)C)cc1)c1ccc(N(C)C(C)=O)cc1` displayed an IC50 in series [3] of 4 µM. Moreover, the inhibition in series [1] turned out to be 72%.

For the molecule `CCC(CC)(c1ccc(OC(=O)N2CCCCC2)cc1)c1ccc(N(C)C(C)=O)cc1`, in series [3], the IC50 was 4.7 µM. In series [1], the inhibition came to 68%.

For `CCN(CC)C(=O)Oc1ccc(C(CC)(CC)c2ccc(N(C)C(C)=O)c(C)c2)cc1C`, in series [1], the inhibition stood at 22%.

`CCN(CC)C(=O)Oc1ccc(C(CC)(CC)c2ccc(N(C)C(C)=O)cc2)cc1` returned an IC50 in series [3] of 9.2 µM. Moreover, the inhibition in series [1] turned out to be 65%.

With `CCN(CC)C(=O)Oc1ccc(C(CC)(CC)c2ccc(NC(C)=O)c(C)c2)cc1C`, the inhibition in series [1] turned out to be 17%.

In turn, `CCN(CC)C(=O)Oc1ccc(C2(c3ccc(N(C)C(C)=O)cc3)CCCC2)cc1` gave an inhibition in series [1] of 5%.

In series [2], `CCC(C)N(C(=O)Oc1ccc(C(CC)(CC)c2ccc(N(C)C(C)=O)cc2)cc1)C(C)CC` (configuration not stated) yielded an inhibition of 22%.

B1: 3-oxo-5-alpha-steroid 4-dehydrogenase 1 (Homo sapiens), P18405 (protein)
chain: T1 sequence (whole entry)
The term Km denotes the substrate concentration at which the rate is half of its maximum. Broadly, the Vmax is the top rate of the reaction or transport when substrate is in excess. In the case of B1, in series [4], the Km came out at 9.1 µM and the Vmax was 13.4 nM/h.

Values taken from ChEMBL document CHEMBL1139779, “3,3-diphenylpentane skeleton as a steroid skeleton substitute: novel inhibitors of human 5alpha-reductase 1” (Bioorg Med Chem Lett, 2007).
